System: NIH/3T3 mouse fibroblasts
Assay: Cytotoxicity elution test
Format: cell-based
Conditions: 24 hours incubation; 3 mg/L, 0.3 mg/L and 0.03 mg/L
Procedure: Elution tests were performed on one sample of the pentablock material to assess the cytotoxic properties of the pentablock copolymers. Approximately 30 mg of the polymers to be tested were dissolved in 100 ml of low-glucose Dulbecco's modified eagle medium (DMEM, Sigma) with 10% fetal bovine serum (FBS, Sigma), 10 μg/ml insulin (Sigma), 10 units/ml penicillin/streptomycin (Sigma), and 100 μg/ml L-ascorbic acid (Sigma). This solution was diluted to achieve the desired polymer concentration for all tests.
NIH/3T3 mouse fibroblasts were grown in polystyrene flasks until reaching confluence at 150 cells/mm. The growth media was removed from the flasks and replaced with one of the following: DMEM (negative control), DMEM with phenol (positive control), DMEM with the pentablock material. The concentrations of the pentablock material and phenol were 3 mg/L, 0.3 mg/L and 0.03 mg/L.
After 24 hours of incubation in a humidified incubator with 5% CO2 at 37° C. the samples were removed and the media was replaced with Kamovsky's fixative (2.5% glutaraldehyde, 2.0% paraformaldehyde, 0.1M sodium cacodylate) for 12 hours. The samples were then stained with a 20% crystal violet dye (CVD) solution in ethanol for 6 hours followed by dehydration with ethanol. […]

Oc1ccccc1 [phenol]
cytotoxic response (cell density, morphology, adherence relative to controls): result expected for a cytotoxic material

From US7217776B1, “pH-sensitive methacrylic copolymer gels and the production thereof” (Iowa State University Research Foundation, priority 2003, dated 2007)
